Assay: Percent of drug in suspension as a function of concentration in the formulation and pH
Format: physicochemical
[1] = pH 4.0, concentration in the formulation 1.0
[2] = pH 4.0, concentration in the formulation .001
[3] = pH 4.0, concentration in the formulation .01
[4] = pH 4.0, concentration in the formulation .1
[5] = pH 4.0, concentration in the formulation 5.0
[6] = pH 5.0, concentration in the formulation 1.0
[7] = pH 5.0, concentration in the formulation 5.0
[8] = pH 5.0, concentration in the formulation .001
[9] = pH 5.0, concentration in the formulation .01
[10] = pH 5.0, concentration in the formulation .1
[11] = pH 6.0, concentration in the formulation 1.0
[12] = pH 6.0, concentration in the formulation 5.0
[13] = pH 6.0, concentration in the formulation .001
[14] = pH 6.0, concentration in the formulation .01
[15] = pH 6.0, concentration in the formulation .1
[16] = pH 7.0, concentration in the formulation 1.0
[17] = pH 7.0, concentration in the formulation 5.0
[18] = pH 7.0, concentration in the formulation .001
[19] = pH 7.0, concentration in the formulation .01
[20] = pH 7.0, concentration in the formulation .1

Structure (SMILES): O=C(O)Cc1ccccc1Nc1c(Cl)cccc1Cl [Diclofenac Sodium, sodium ortho-(2,6-dichlorophenyl)aminophenylacetate acid]
- diclofenac in suspension (in words) (below a pH of about 6.8, formulation containing 1% diclofenac sodium): virtually all
- Percent Diclofenac Sodium in Suspension (pH 3.7, concentration in the formulation 1.0): 100%
- Percent Diclofenac Sodium in Suspension (pH 3.7, concentration in the formulation .001): 100%
- Percent Diclofenac Sodium in Suspension (pH 3.7, concentration in the formulation .01): 100%
- Percent Diclofenac Sodium in Suspension (pH 3.7, concentration in the formulation .1): 100%
- Percent Diclofenac Sodium in Suspension [1]: 99%
- Percent Diclofenac Sodium in Suspension [2]: 99%
- Percent Diclofenac Sodium in Suspension [3]: 99%
- Percent Diclofenac Sodium in Suspension [4]: 99%
- Percent Diclofenac Sodium in Suspension (pH 4.6, concentration in the formulation 1.0): 99%
- Percent Diclofenac Sodium in Suspension (pH 4.6, concentration in the formulation .001): 90%
- Percent Diclofenac Sodium in Suspension (pH 4.6, concentration in the formulation .01): 99%
- Percent Diclofenac Sodium in Suspension (pH 4.6, concentration in the formulation .1): 99%
- Percent Diclofenac Sodium in Suspension (pH 5.2, concentration in the formulation 1.0): 99%
- Percent Diclofenac Sodium in Suspension (pH 5.2, concentration in the formulation .001): 20%
- Percent Diclofenac Sodium in Suspension (pH 5.2, concentration in the formulation .01): 92%
- Percent Diclofenac Sodium in Suspension (pH 5.2, concentration in the formulation .1): 99%
- Percent Diclofenac Sodium in Suspension (pH 5.9, concentration in the formulation 1.0): 99%
- Percent Diclofenac Sodium in Suspension (pH 5.9, concentration in the formulation .001): 0%
- Percent Diclofenac Sodium in Suspension (pH 5.9, concentration in the formulation .01): 50%
- Percent Diclofenac Sodium in Suspension (pH 5.9, concentration in the formulation .1): 95%
- Percent Diclofenac Sodium in Suspension (pH 6.3, concentration in the formulation 1.0): 98%
- Percent Diclofenac Sodium in Suspension (pH 6.3, concentration in the formulation .001): 0%
- Percent Diclofenac Sodium in Suspension (pH 6.3, concentration in the formulation .01): 0%
- Percent Diclofenac Sodium in Suspension (pH 6.3, concentration in the formulation .1): 76%
- Percent Diclofenac Sodium in Suspension (pH 6.5, concentration in the formulation 1.0): 93%
- Percent Diclofenac Sodium in Suspension (pH 6.5, concentration in the formulation .001): 0%
- Percent Diclofenac Sodium in Suspension (pH 6.5, concentration in the formulation .01): 0%
- Percent Diclofenac Sodium in Suspension (pH 6.5, concentration in the formulation .1): 35%
- Percent Diclofenac Sodium in Suspension (pH 7.3, concentration in the formulation 1.0): 64%
- Percent Diclofenac Sodium in Suspension (pH 7.3, concentration in the formulation .001): 0%
- Percent Diclofenac Sodium in Suspension (pH 7.3, concentration in the formulation .01): 0%
- Percent Diclofenac Sodium in Suspension (pH 7.3, concentration in the formulation .1): 0%

Structure (SMILES): CC(C(=O)O)c1ccc(-c2ccccc2)c(F)c1 (stereo not shown) [Flurbiprofen]
- Percent Flurbiprofen in Suspension [1]: 99%
- Percent Flurbiprofen in Suspension [5]: 99%
- Percent Flurbiprofen in Suspension [2]: 20%
- Percent Flurbiprofen in Suspension [3]: 92%
- Percent Flurbiprofen in Suspension [4]: 99%
- Percent Flurbiprofen in Suspension [6]: 99%
- Percent Flurbiprofen in Suspension [7]: 99%
- Percent Flurbiprofen in Suspension [8]: 0%
- Percent Flurbiprofen in Suspension [9]: 33%
- Percent Flurbiprofen in Suspension [10]: 93%
- Percent Flurbiprofen in Suspension [11]: 80%
- Percent Flurbiprofen in Suspension [12]: 98%
- Percent Flurbiprofen in Suspension [13]: 0%
- Percent Flurbiprofen in Suspension [14]: 0%
- Percent Flurbiprofen in Suspension [15]: 0%
- Percent Flurbiprofen in Suspension [16]: 24%
- Percent Flurbiprofen in Suspension [17]: 92%
- Percent Flurbiprofen in Suspension [18]: 0%
- Percent Flurbiprofen in Suspension [19]: 0%
- Percent Flurbiprofen in Suspension [20]: 0%

Structure (SMILES): CC(C(=O)O)c1ccc(C(=O)c2cccs2)cc1 (stereo not shown) [Suprofen]
- Percent Suprofen in Suspension [1]: 98%
- Percent Suprofen in Suspension [5]: 99%
- Percent Suprofen in Suspension [2]: 0%
- Percent Suprofen in Suspension [3]: 0%
- Percent Suprofen in Suspension [4]: 77%
- Percent Suprofen in Suspension [6]: 95%
- Percent Suprofen in Suspension [7]: 99%
- Percent Suprofen in Suspension [8]: 0%
- Percent Suprofen in Suspension [9]: 0%
- Percent Suprofen in Suspension [10]: 45%
- Percent Suprofen in Suspension [11]: 54%
- Percent Suprofen in Suspension [12]: 95%
- Percent Suprofen in Suspension [13]: 0%
- Percent Suprofen in Suspension [14]: 0%
- Percent Suprofen in Suspension [15]: 0%
- Percent Suprofen in Suspension [16]: 0%
- Percent Suprofen in Suspension [17]: 68%
- Percent Suprofen in Suspension [18]: 0%
- Percent Suprofen in Suspension [19]: 0%
- Percent Suprofen in Suspension [20]: 0%

— US5814655A, “Non-steroidal ophthalmic mixtures” (InSite Vision Incorporated, priority 1996, dated 1998)
